Laboratory results from article PMC8494914, “Elexacaftor is a CFTR potentiator and acts synergistically with ivacaftor during acute and chronic treatment” (Scientific Reports, 2021).

Key:
R117H-CFTR = target: T1, R117H-CFTR (Homo sapiens, UniProt P13569, R117H); assay: Ussing chamber transepithelial current, acute potentiation; assay type: cell-based
T1 construct: R117H-CFTR expressed in FRT cells

[1] = target: T2, cystic fibrosis transmembrane conductance regulator (CFTR) (Homo sapiens, UniProt P13569); assay: Ussing chamber transepithelial current, concentration-response of acute potentiation; assay type: cell-based
T2 construct: endogenous CFTR in non-CF human nasal epithelial cells
T2 sequence (P13569 whole entry): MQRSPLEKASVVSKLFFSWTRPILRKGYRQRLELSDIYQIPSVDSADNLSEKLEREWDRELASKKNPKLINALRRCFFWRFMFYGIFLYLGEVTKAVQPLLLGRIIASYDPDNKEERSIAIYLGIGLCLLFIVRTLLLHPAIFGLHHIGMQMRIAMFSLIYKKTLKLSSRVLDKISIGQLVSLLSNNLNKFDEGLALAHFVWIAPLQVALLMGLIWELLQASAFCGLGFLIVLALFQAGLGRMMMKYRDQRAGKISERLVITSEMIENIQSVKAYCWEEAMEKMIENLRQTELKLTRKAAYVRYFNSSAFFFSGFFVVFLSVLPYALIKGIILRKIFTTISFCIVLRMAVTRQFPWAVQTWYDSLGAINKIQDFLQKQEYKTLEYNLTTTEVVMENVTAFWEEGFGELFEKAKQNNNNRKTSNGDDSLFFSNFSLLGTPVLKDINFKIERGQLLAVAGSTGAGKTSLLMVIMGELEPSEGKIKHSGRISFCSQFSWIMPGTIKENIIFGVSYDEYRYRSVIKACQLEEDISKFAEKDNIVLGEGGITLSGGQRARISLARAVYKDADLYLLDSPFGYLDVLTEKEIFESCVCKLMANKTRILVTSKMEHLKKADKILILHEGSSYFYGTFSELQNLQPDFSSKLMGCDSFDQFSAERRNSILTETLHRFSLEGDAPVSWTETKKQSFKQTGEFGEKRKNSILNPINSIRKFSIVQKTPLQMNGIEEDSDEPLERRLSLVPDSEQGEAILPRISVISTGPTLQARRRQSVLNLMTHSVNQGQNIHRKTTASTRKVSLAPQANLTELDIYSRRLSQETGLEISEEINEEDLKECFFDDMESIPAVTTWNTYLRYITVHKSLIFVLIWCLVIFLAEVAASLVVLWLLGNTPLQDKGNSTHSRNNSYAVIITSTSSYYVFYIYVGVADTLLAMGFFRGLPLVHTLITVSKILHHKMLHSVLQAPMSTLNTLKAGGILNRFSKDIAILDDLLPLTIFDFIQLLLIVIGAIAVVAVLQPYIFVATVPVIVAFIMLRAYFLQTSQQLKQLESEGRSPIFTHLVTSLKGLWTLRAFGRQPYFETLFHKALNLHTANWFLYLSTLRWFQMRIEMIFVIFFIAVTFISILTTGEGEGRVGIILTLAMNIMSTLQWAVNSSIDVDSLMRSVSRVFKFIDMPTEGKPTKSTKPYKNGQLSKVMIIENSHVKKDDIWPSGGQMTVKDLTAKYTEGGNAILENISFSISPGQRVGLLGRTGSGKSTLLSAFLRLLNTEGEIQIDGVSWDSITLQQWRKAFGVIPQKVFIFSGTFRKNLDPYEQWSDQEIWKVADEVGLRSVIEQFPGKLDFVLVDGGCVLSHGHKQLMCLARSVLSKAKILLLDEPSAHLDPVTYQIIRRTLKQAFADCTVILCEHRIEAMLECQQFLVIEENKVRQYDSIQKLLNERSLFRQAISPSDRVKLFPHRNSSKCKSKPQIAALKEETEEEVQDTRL

T1 sequence (P13569 whole entry R117H): as the sequence (P13569 whole entry) above, with R117H counted along it

Compound | Ussing chamber transepithelial current, acute potentiation (R117H-CFTR) | EC50 [1] [nM]
Cc1nn(C)cc1S(=O)(=O)NC(=O)c1ccc(-n2ccc(OCC(C)(C)C(F)(F)F)n2)nc1N1C[C@@H](C)CC1(C)C [VX-445, elexacaftor] | We also found that VX-445 potentiates R117H-CFTR expressed in FRT cells | 1.5 ± 1.4
CC(C)(C)c1cc(C(C)(C)C)c(NC(=O)c2c[nH]c3ccccc3c2=O)cc1O [VX-770, ivacaftor] | VX-445 and VX-770 did not exhibit the same high degree of synergy in potentiating R117H-CFTR | –
